Test results: patent US6352958B1, “Cycloimido-substituted benzofused heterocyclic herbicides” (FMC Corporation, priority 1997, dated 2002)

What was measured:
Format in all cases: in vivo
[1] = tested on: soybean (Glycine max var. Winchester); test: Preemergence herbicidal activity, soybean; details: Rate of Application 0.3 Kg/Ha, examined after 12-17 days
[2] = tested on: wheat (Triticum aestivum var. Lew); test: Preemergence herbicidal activity, wheat; details: Rate of Application 0.3 Kg/Ha, examined after 12-17 days
[3] = tested on: field corn (Zea mays var. Pioneer 3732); test: Preemergence herbicidal activity, corn; details: Rate of Application 0.3 Kg/Ha, examined after 12-17 days
[4] = tested on: velvetleaf (Abutilon theophrasti); test: Preemergence herbicidal activity, velvetleaf; details: Rate of Application 0.3 Kg/Ha, examined after 12-17 days
[5] = tested on: morningglory (Ipomea lacunosa or Ipomea hederacea); test: Preemergence herbicidal activity, morningglory; details: Rate of Application 0.3 Kg/Ha, examined after 12-17 days
[6] = tested on: common chickweed (Stellaria media); test: Preemergence herbicidal activity, chickweed; details: Rate of Application 0.3 Kg/Ha, examined after 12-17 days
[7] = tested on: common cocklebur (Xanthium strumarium L.); test: Preemergence herbicidal activity, cocklebur; details: Rate of Application 0.3 Kg/Ha, examined after 12-17 days
[8] = tested on: blackgrass (Aloepecurus myosuroides); test: Preemergence herbicidal activity, blackgrass; details: Rate of Application 0.3 Kg/Ha, examined after 12-17 days
Method: The benzofused heterocyclic compounds of this invention were tested for pre- and postemergence herbicidal activity using a variety of crops and weeds. The test plants included soybean (Glycine max var. Winchester), field corn (Zea mays var. Pioneer 3732), wheat (Triticum aestivum var. Lew), morningglory (Ipomea lacunosa or Ipomea hederacea), velvetleaf (Abutilon theophrasti), green foxtail (Setaria viridis), Johnsongrass (Sorghum halepense), blackgrass (Aloepecurus myosuroides), common chickweed (Stellaria media), and common cocklebur (Xanthium strumarium L.).
For preemergence testing, two disposable fiber flats (8 cm×15 cm×25 cm) for each rate of application of each candidate herbicide were filled to an approximate depth of 6.5 cm with steam-sterilized sandy loam soil. The soil was leveled and impressed with a template to provide five evenly spaced furrows 13 cm long and 0.5 cm deep in each flat. Seeds of soybean, wheat, corn, green foxtail, and johnsongrass were planted in the furrows of the first flat, and seeds of velvetleaf, morningglory, common chickweed, cocklebur, and blackgrass were planted in the furrows of the second flat. The five-row template was employed to firmly press the seeds into place. A topping soil of equal portions of sand and sandy loam soil was placed uniformly on top of each flat to a depth of approximately 0.5 cm. Flats for postemergence testing were prepared in the same manner except that they were planted 9-14 days prior to the preemergence flats and were placed in a greenhouse and watered, thus allowing the seeds to germinate and the foliage to develop.
In both pre- and postemergence tests, a stock solution of the candidate herbicide was prepared by dissolving 0.27 g of the compound in 20 mL of water/acetone (50/50) containing 0.5% v/v sorbitan monolaurate. For an application rate of 3000 g/ha of herbicide a 10 mL portion of the stock solution was diluted with water/acetone (50/50) to 45 mL.
The preemergence flats were initially subjected to a light water spray. The four flats were placed two by two along a conveyor belt (i.e., the two preemergence followed by the two postemergence flats). The conveyor belt fed under a spray nozzle mounted about ten inches above the post-emergent foliage. The preemergent flats were elevated on the belt so that the soil surface was at the same level below the spray nozzle as the foliage canopy of the postemergent plants. The spray of herbicidal solution was commenced and once stabilized, the flats were passed under the spray at a speed to receive a coverage equivalent of 100 L/ha. At this coverage the application rates are those shown in the above table for the individual herbicidal solutions. The preemergence flats were watered immediately thereafter, placed in the greenhouse and watered regularly at the soil surface. The postemergence flats were immediately placed in the green-house and not watered until 24 hours after treatment with the test solution. Thereafter they were regularly watered at ground level. After 12-17 days the plants were examined and the phytotoxicity data were recorded.
Phytotoxicity data were taken as percent control. Percent control was determined by a method similar to the 0 to 100 rating system disclosed in “Research Methods in Weed Science,” 2nd ed., B. Truelove, Ed.; Southern Weed Science Society; Auburn University, Auburn, Ala., 1977.

[9] = tested on: green foxtail (Setaria viridis); test: Preemergence herbicidal activity, green foxtail; details: Rate of Application 0.3 Kg/Ha, examined after 12-17 days
[10] = tested on: Johnsongrass (Sorghum halepense); test: Preemergence herbicidal activity, johnsongrass; details: Rate of Application 0.3 Kg/Ha, examined after 12-17 days
[11] = tested on: soybean (Glycine max var. Winchester); test: Postemergence herbicidal activity, soybean; details: rate of application 0.3 Kg/Ha, rated after 12-17 days
[12] = tested on: wheat (Triticum aestivum var. Lew); test: Postemergence herbicidal activity, wheat; details: rate of application 0.3 Kg/Ha, rated after 12-17 days
[13] = tested on: field corn (Zea mays var. Pioneer 3732); test: Postemergence herbicidal activity, corn; details: rate of application 0.3 Kg/Ha, rated after 12-17 days
[14] = tested on: velvetleaf (Abutilon theophrasti); test: Postemergence herbicidal activity, velvetleaf; details: rate of application 0.3 Kg/Ha, rated after 12-17 days
[15] = tested on: morningglory (Ipomea lacunosa or Ipomea hederacea); test: Postemergence herbicidal activity, morningglory; details: rate of application 0.3 Kg/Ha, rated after 12-17 days
[16] = tested on: common chickweed (Stellaria media); test: Postemergence herbicidal activity, chickweed; details: rate of application 0.3 Kg/Ha, rated after 12-17 days
[17] = tested on: common cocklebur (Xanthium strumarium L.); test: Postemergence herbicidal activity, cocklebur; details: rate of application 0.3 Kg/Ha, rated after 12-17 days
[18] = tested on: green foxtail (Setaria viridis); test: Postemergence herbicidal activity, green foxtail; details: rate of application 0.3 Kg/Ha, rated after 12-17 days
[19] = tested on: Johnsongrass (Sorghum halepense); test: Postemergence herbicidal activity, johnsongrass; details: rate of application 0.3 Kg/Ha, rated after 12-17 days

Cn1c(C(F)(F)F)cc(=O)n(-c2c(F)cc(Cl)c3[nH]c(C(F)F)nc23)c1=O [Compound 364]
PREEMERGENCE HERBICIDAL ACTIVITY (% CONTROL) SOY [1]: 100%
PREEMERGENCE HERBICIDAL ACTIVITY (% CONTROL) WHT [2]: 60%
PREEMERGENCE HERBICIDAL ACTIVITY (% CONTROL) CRN [3]: 80%
PREEMERGENCE HERBICIDAL ACTIVITY (% CONTROL) ABUTH [4]: 100%
PREEMERGENCE HERBICIDAL ACTIVITY (% CONTROL) IPOSS [5]: 100%
PREEMERGENCE HERBICIDAL ACTIVITY (% CONTROL) STEME [6]: 100%
PREEMERGENCE HERBICIDAL ACTIVITY (% CONTROL) XANPE [7]: 100%
PREEMERGENCE HERBICIDAL ACTIVITY (% CONTROL) ALOMY [8]: 80%
PREEMERGENCE HERBICIDAL ACTIVITY (% CONTROL) SETVI [9]: 100%
PREEMERGENCE HERBICIDAL ACTIVITY (% CONTROL) SORHA [10]: 80%
Postemergence herbicidal activity (% control) SOY [11]: 95%
Postemergence herbicidal activity (% control) WHT [12]: 40%
Postemergence herbicidal activity (% control) CRN [13]: 80%
Postemergence herbicidal activity (% control) ABUTH [14]: 100%
Postemergence herbicidal activity (% control) IPOSS [15]: 100%
Postemergence herbicidal activity (% control) STEME [16]: 100%
Postemergence herbicidal activity (% control) XANPE [17]: 100%
Postemergence herbicidal activity (% control) SETVI [18]: 100%
Postemergence herbicidal activity (% control) SORHA [19]: 100%

Cn1c(C(F)(F)F)cc(=O)n(-c2c(F)cc(Br)c3oc(COc4ccccc4)nc23)c1=O [Compound 99]
PREEMERGENCE HERBICIDAL ACTIVITY (% CONTROL) SOY [1]: 40%
PREEMERGENCE HERBICIDAL ACTIVITY (% CONTROL) WHT [2]: 50%
PREEMERGENCE HERBICIDAL ACTIVITY (% CONTROL) CRN [3]: 60%
PREEMERGENCE HERBICIDAL ACTIVITY (% CONTROL) ABUTH [4]: 100%
PREEMERGENCE HERBICIDAL ACTIVITY (% CONTROL) IPOSS [5]: 100%
PREEMERGENCE HERBICIDAL ACTIVITY (% CONTROL) STEME [6]: 100%
PREEMERGENCE HERBICIDAL ACTIVITY (% CONTROL) ALOMY [8]: 60%
PREEMERGENCE HERBICIDAL ACTIVITY (% CONTROL) SETVI [9]: 100%
PREEMERGENCE HERBICIDAL ACTIVITY (% CONTROL) SORHA [10]: 65%
Postemergence herbicidal activity (% control) SOY [11]: 80%
Postemergence herbicidal activity (% control) WHT [12]: 40%
Postemergence herbicidal activity (% control) CRN [13]: 80%
Postemergence herbicidal activity (% control) ABUTH [14]: 100%
Postemergence herbicidal activity (% control) IPOSS [15]: 100%
Postemergence herbicidal activity (% control) STEME [16]: 95%
Postemergence herbicidal activity (% control) XANPE [17]: 70%
Postemergence herbicidal activity (% control) SETVI [18]: 70%
Postemergence herbicidal activity (% control) SORHA [19]: 65%

CC(=O)OC(C)c1cc2c(Cl)cc(F)c(-n3c(=O)cc(C(F)(F)F)n(C)c3=O)c2o1 (centres unmarked) [Compound 246]
PREEMERGENCE HERBICIDAL ACTIVITY (% CONTROL) SOY [1]: 100%
PREEMERGENCE HERBICIDAL ACTIVITY (% CONTROL) WHT [2]: 100%
PREEMERGENCE HERBICIDAL ACTIVITY (% CONTROL) CRN [3]: 100%
PREEMERGENCE HERBICIDAL ACTIVITY (% CONTROL) ABUTH [4]: 100%
PREEMERGENCE HERBICIDAL ACTIVITY (% CONTROL) IPOSS [5]: 100%
PREEMERGENCE HERBICIDAL ACTIVITY (% CONTROL) STEME [6]: 100%
PREEMERGENCE HERBICIDAL ACTIVITY (% CONTROL) XANPE [7]: 100%
PREEMERGENCE HERBICIDAL ACTIVITY (% CONTROL) ALOMY [8]: 100%
PREEMERGENCE HERBICIDAL ACTIVITY (% CONTROL) SETVI [9]: 100%
PREEMERGENCE HERBICIDAL ACTIVITY (% CONTROL) SORHA [10]: 100%
Postemergence herbicidal activity (% control) SOY [11]: 95%
Postemergence herbicidal activity (% control) WHT [12]: 100%
Postemergence herbicidal activity (% control) CRN [13]: 100%
Postemergence herbicidal activity (% control) ABUTH [14]: 100%
Postemergence herbicidal activity (% control) IPOSS [15]: 100%
Postemergence herbicidal activity (% control) STEME [16]: 100%
Postemergence herbicidal activity (% control) XANPE [17]: 100%
Postemergence herbicidal activity (% control) SETVI [18]: 100%
Postemergence herbicidal activity (% control) SORHA [19]: 100%
